Data set [1] relates to Streptococcus sp. 'group A'. In words: growth inhibition of control SK(-) GAS strain, dose response, counter-screen for streptokinase expression inhibitor project, luminescence, kanamycin, BacTiterGlo, confirmation (AID 1900). In kind it is functional, organism-based.
The next data set deals with T1, Streptokinase A (Streptococcus pyogenes serotype M1, UniProt P10520).
T1 sequence (P10520 whole entry): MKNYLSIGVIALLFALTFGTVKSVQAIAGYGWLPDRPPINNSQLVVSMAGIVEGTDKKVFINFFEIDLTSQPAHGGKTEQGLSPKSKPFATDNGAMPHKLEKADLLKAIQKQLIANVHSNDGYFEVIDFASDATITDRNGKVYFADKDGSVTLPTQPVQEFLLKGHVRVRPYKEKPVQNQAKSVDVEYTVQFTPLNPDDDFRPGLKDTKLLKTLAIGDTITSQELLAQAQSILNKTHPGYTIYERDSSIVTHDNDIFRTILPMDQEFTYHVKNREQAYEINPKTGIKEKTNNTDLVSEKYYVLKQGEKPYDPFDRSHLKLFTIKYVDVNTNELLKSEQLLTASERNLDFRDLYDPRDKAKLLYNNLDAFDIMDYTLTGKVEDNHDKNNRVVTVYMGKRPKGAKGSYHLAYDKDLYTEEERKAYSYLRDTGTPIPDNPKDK
Briefly: S. pyogenes streptokinase expression inhibitors, potency, dose response, plasminogen activation absorbance, OD405 (AID 1914).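 Note: secreted streptokinase activity via plasminogen activation per viability signal from cell pellet.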 The format is functional, Streptococcus pyogenes M1 GAS.

The test system of the next data set is Streptococcus. Briefly: Group A Streptococcus viability loss, dose response, counter-screen for streptokinase expression inhibitor project, luminescence, BacTiterGlo (AID 1915).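 Note: potency for reduction of bacterial viability or growth.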 In kind it is functional, organism-based. (In general: Counterscreens check selectivity or assay interference.)
For a further data set, the target named is Cytochrome P450 2C19 (Homo sapiens, UniProt P33261). In words: Cytochrome panel assay with activity outcomes. Panel member name: p450-cyp2c19 Compounds with AC50 equal or less than 10 uM are considered active. The format is functional.
Data set [2] concerns the target T2, Corticotropin-releasing factor receptor 2/Corticotropin-releasing factor-binding protein (Homo sapiens, UniProt P24387+Q13324).
T2 sequence (Q13324 whole entry): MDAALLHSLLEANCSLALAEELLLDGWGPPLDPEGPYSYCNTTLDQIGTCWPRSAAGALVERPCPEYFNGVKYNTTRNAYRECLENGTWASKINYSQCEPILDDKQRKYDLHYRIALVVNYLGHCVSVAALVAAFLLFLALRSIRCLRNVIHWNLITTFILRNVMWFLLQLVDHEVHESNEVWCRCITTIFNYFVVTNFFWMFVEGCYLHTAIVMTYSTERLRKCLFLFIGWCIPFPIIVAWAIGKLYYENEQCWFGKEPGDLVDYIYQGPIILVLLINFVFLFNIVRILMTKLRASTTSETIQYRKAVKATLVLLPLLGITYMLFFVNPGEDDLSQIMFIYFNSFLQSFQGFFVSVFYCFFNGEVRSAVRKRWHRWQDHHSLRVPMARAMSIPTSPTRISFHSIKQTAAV
T2 sequence (P24387 whole entry): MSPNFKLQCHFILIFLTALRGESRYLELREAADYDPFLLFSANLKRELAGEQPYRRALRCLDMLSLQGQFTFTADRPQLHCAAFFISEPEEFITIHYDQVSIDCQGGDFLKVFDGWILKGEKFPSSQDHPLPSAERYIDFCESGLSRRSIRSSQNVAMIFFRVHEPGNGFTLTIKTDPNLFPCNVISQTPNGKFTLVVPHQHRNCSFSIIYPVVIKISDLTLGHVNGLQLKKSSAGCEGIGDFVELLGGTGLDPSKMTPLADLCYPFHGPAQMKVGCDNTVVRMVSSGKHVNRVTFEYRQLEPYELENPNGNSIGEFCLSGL
In words: Dose Response confirmation of uHTS hits for small molecule antagonists of the CRF-binding protein and CRF-R2 receptor complex. The format is functional. The following applies: read-out: IC50_Mean.

In data set [3] the target is T2, Corticotropin-releasing factor receptor 2/Corticotropin-releasing factor-binding protein. Briefly: activators of CRF receptor 2 with binding protein – uHTS hits, confirmation (AID 602473). In kind it is functional. The following applies: read-out: EC50_Mean.
A further data set deals with Cytochrome P450 2D6 (Homo sapiens, UniProt P10635).
The nature of data set [4]: inhibitors of intracellular T. cruzi replication, confirmation, NIH3T3 host cells, beta-gal luminescence (AID 2044).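 Note: intracellular parasites grown in NIH/3T3 mouse fibroblasts as host cells; luminescent beta-galactosidase reporter signal from transgenic T. cruzi replicating inside host cells; inhibitors lower the luminescence signal.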 The format is functional, cell-based.
Data set [5] can be described thus: cytotoxicity toward NIH3T3 fibroblasts, dose response, counter-screen, cell-based, ATP luminescence, mouse fibroblasts (AID 2010).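 Note: cells exposed to compound for about 90 hours before reading.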 In kind it is functional.

Broadly, the AC50 is the concentration at which the activity in the assay is half-maximal.

Calls of active or inactive are those of the source.

Chain of Cytochrome P450 2C19 (P33261 whole entry): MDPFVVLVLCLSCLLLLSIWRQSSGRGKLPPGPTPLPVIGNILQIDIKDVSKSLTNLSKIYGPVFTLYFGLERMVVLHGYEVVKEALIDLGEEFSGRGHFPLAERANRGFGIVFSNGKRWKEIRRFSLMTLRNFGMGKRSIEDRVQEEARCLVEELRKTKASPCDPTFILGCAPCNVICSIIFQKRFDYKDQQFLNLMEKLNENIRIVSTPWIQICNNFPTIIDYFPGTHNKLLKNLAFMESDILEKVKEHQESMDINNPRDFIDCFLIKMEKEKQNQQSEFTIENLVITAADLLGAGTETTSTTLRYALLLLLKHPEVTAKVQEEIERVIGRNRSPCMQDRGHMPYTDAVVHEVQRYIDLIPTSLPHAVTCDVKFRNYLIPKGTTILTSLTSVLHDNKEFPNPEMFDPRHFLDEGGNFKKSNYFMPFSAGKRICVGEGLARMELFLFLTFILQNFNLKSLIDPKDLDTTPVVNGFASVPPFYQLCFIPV
Chain of Cytochrome P450 2D6 (P10635 whole entry): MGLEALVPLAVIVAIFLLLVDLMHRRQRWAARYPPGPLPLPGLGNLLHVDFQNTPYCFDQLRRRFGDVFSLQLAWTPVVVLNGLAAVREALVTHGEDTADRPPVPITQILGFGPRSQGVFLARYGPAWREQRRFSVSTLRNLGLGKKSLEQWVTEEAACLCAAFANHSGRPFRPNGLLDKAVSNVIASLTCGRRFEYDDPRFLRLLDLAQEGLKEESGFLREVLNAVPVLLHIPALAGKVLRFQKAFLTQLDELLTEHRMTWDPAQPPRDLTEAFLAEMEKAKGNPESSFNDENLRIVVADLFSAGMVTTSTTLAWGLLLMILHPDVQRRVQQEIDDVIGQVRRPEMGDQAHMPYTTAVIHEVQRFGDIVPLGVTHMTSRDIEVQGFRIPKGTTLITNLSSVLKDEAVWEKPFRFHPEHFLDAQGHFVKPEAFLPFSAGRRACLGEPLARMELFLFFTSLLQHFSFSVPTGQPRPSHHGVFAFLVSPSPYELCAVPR

Regarding `COc1ccccc1NC(=O)C(=O)NNC(=O)COc1ccc2ccccc2c1`, the values for the EC50 (in [1]; at Streptokinase A; with Streptococcus) were 4.14 µM (active), > 150 µM (not active) and 17.7 µM (active), respectively. Take `O=C1C=C(NCCN2CCOCC2)CC(c2ccccc2)C1` (stereo not given): the AC50 on Cytochrome P450 2C19 (read-out: AC50) is 39.8 µM (inconclusive). Same read-out and setting: for `CC(C)CN(CC(C)C)S(=O)(=O)N1CCC(C(=O)NCc2ccc(F)cc2)CC1` the value was 25.1 µM (inconclusive). In the case of `C=Cn1cc[n+](CC(=O)c2ccc(Cl)cc2)c1`, the IC50 in data set [2] is > 47.1 µM (inactive). In addition, the EC50 in data set [3] was > 53 µM (inactive). For `CC1CCN(C(=O)c2ccc3c(c2)NC(=O)/C(=C/c2ccccc2)S3)CC1`, the EC50 in [1] is 2.64 µM (active); at Streptokinase A it was > 150 µM (not active); in the data set with Streptococcus it was 6.87 µM (active). Take `O=C(C1CC(=O)N(c2ccc(Br)cc2)C1)N1CCCC1` (stereo not given): the IC50 in [2] was > 47.1 µM (inactive). The EC50 in [3] is > 53 µM (inactive). For `Cc1cc(C)c2c(n1)sc1c(=O)n(CC(=O)c3ccccc3)cnc12`, the EC50 in data set [1] was 0.95 µM (active); on Streptokinase A it was > 150 µM (not active); in the data set with Streptococcus it was 5.59 µM (active).

`Cc1cc2nc(/C(C#N)=C\c3ccc(-c4ccccc4C(=O)O)o3)[nH]c2cc1C`: the EC50 in data set [3] was 5.8 µM (active). Take `C=CCOC(=O)C(C#N)c1nc2ccccc2nc1N1CCN(c2ccccc2OCC)CC1` (stereo not given): in data set [2], the IC50 was > 47.1 µM (inactive). In data set [3], the EC50 is > 53 µM (inactive). The matching figures for `CCCCc1nc2ccccc2c(NC(=O)CN(CC)CC)c1CCC`: > 47.1 µM (inactive) and > 53 µM (inactive). On the same counts, the results for `CC(=O)Oc1ccc2cc(-c3cccnc3)c(=O)oc2c1` are > 47.1 µM (inactive) and > 53 µM (inactive). On to `O=C(NCc1ccccn1)Nc1ccc(F)c(Cl)c1`, for which the EC50 (in [1]; at Streptokinase A; in the data set on Streptococcus) was > 150 µM (not active) throughout.

With `COc1ccccc1CNc1nc(-c2ccoc2)nc2ccccc12`, on Cytochrome P450 2D6, the AC50 was 6.31 µM (active). Turning to `COc1cccc(N2CCN(S(=O)(=O)c3c(C)[nH]c(C)c3C(=O)N3CCCC3)CC2)c1`, in data set [2], the IC50 is > 47.1 µM (inactive). Besides, in data set [3], the EC50 was > 53 µM (inactive). As for `O=c1c2ccccc2c(-c2ccccc2)nn1-c1ccc(Cl)c(Cl)c1`, on Cytochrome P450 2D6, the AC50 is 10 µM (inconclusive).

As to `Cc1ccc(S(=O)(=O)Nc2cc(O)nc3c2CCC3)cc1`, the AC50 on Cytochrome P450 2D6 is 2.51 µM (inconclusive). As to `CC(Oc1ccc(Cl)cc1)C(=O)Nc1ccccc1N1CCOCC1` (stereo not given), the EC50 in [3] was 7.37 µM (active). Turning to `COc1ncc2nc(C)c(=O)n(Cc3cccs3)c2n1`, at Cytochrome P450 2D6, the concentration at half-maximal activity (AC50) was 25.1 µM (inconclusive).

Regarding `CNc1nc(N(C)C)nc(N(C)C)n1` [PENTAMETHYL MELAMINE], the EC50 in data set [3] was > 53 µM (inactive).

On to `CC(=O)Oc1ccccc1C1=NN(C(=O)/C=C/c2ccccc2)C(c2ccccc2)C1` (stereo not given), for which the EC50 in data set [1] was 17.1 µM (active); at Streptokinase A, > 150 µM (not active); with Streptococcus, > 150 µM (not active).

Consider `CCC(C)Sc1cc(-c2nc3ccc(C)cn3c2NCc2ccccc2)ccc1OC` (stereo not given), for which the EC50 in [1] was 2.32 µM (active); at Streptokinase A, 2.75 µM (active); in the data set with Streptococcus, 9.32 µM (active).

Take `CCn1c2ccccc2c2cc(NC(=O)C/C(C)=N/NC(=O)c3ccccc3N)ccc21`: the AC50 at Cytochrome P450 2D6 was 25.1 µM (inconclusive).

With `O=C(NCc1ccc(OC(F)(F)F)cc1)c1cccc2c1C(=O)c1ccc(N3CCCC3)cc1S2(=O)=O`, the EC50 in [3] was 11.8 µM (active). In the case of `CCCCCCCCCSc1nnc(N)[nH]1`, the IC50 in data set [2] was > 47.1 µM (inactive). For the same molecule, the EC50 in data set [3] was > 53 µM (inactive). The matching figures for `O=C(CSCC(=O)Nc1cccc([N+](=O)[O-])c1)Nc1ccccc1`: > 47.1 µM (inactive) and > 53 µM (inactive). `Cc1ccc(-c2cc(C(F)F)nc(N3CCC(C)CC3)n2)cc1`: the results for the EC50 (in data set [1]; at Streptokinase A; in the data set on Streptococcus) were 6.63 µM (active), > 150 µM (not active) and 10 µM (active), respectively.

For the molecule `O=C(OCc1cc(=O)n2ccsc2n1)C1(c2ccccc2)CC1`, the IC50 in [2] was > 47.1 µM (inactive). For the same molecule, the EC50 in data set [3] was > 53 µM (inactive). The matching figures for `CCCn1c(C(C)NS(=O)(=O)c2ccccc2)n[nH]c1=S` (stereo not given): > 47.1 µM (inactive) and > 53 µM (inactive).

For the molecule `Cc1cnc(CNc2ncnc3ccc(-c4ccc5c(c4)OCO5)cc23)cn1`, the AC50 at Cytochrome P450 2C19 (read-out: AC50) is 15.8 µM (inconclusive). Regarding `Clc1ccc(-c2[nH]nc3c2CCC3)cc1Cl`, the EC50 is 8.42 µM (active) in data set [1], > 150 µM (not active) at Streptokinase A and 13.9 µM (active) in the data set on Streptococcus. As for `O=C(O)Cc1ccc2ocnc2c1`, the half-maximal activity concentration (AC50) result at Cytochrome P450 2C19 is “inconclusive”. Turning to `Cc1cccc(CNc2ncncc2-c2cccnc2)c1`, the AC50 at Cytochrome P450 2D6 is 25.1 µM (inconclusive). Consider `CCOC(=O)c1ccc(-c2ccc3c(=O)c4ccccc4n(C)c3c2)cc1F`, for which the EC50 in data set [1] was 3.46 µM (active); at Streptokinase A, > 150 µM (not active); in the data set on Streptococcus, > 150 µM (not active). As for `c1ccc(Oc2nc(-c3ccccn3)nc3ccccc23)cc1`, the EC50 in data set [1] is 44.1 µM (active); at Streptokinase A it was > 150 µM (not active); in [4], 3.8 µM (active); in [5], > 60 µM (not active); with Streptococcus, 22.5 µM (active). On to `C=C(C)Cn1c(=O)c2c(nc3n2CC(C)CN3Cc2ccccc2)n(C)c1=O` (stereo not given), for which the IC50 in [2] is > 47.1 µM (inactive). Also, the EC50 in data set [3] was > 53 µM (inactive).

As for `CCN1C(c2ccccc2)C(C)C(=O)C(C)C1c1ccccc1` (stereo not given), the IC50 in data set [2] was > 47.1 µM (inactive). In [3], the EC50 is > 53 µM (inactive).

Regarding `COc1ccc(/C=C/c2c([N+](=O)[O-])c(=O)n(C)c(=O)n2C)cc1O`, the IC50 in data set [2] was > 47.1 µM (inactive). Further, the EC50 in data set [3] is > 53 µM (inactive).

Consider `CC(=O)N(CC(=O)O)c1ccccc1C(=O)O`, for which the AC50 on Cytochrome P450 2C19 (read-out: AC50) is 0.0562 µM (inconclusive).

Consider `COC(=O)CCCC1=CC2=C(c3ccccc3)C(=O)C(C)(OC(=O)C3CCCC3)C(=O)C2=CN1CCc1ccccn1` (stereo not given), for which the IC50 in data set [2] was > 47.1 µM (inactive). Besides, the EC50 in data set [3] is > 53 µM (inactive). Regarding `Cc1occc1C(=O)NNC(=O)c1ccc(F)cc1`, the AC50 result on Cytochrome P450 2C19 is given as “inconclusive”.

Consider `CCOC(=O)c1c(CC(C)C)csc1N`, for which the IC50 in data set [2] is > 47.1 µM (inactive). Also, the EC50 in [3] was > 53 µM (inactive). In the case of `Cc1cc(=O)oc(C)c1C(=O)NCc1ccccn1`, the half-maximal activity concentration (AC50) result on Cytochrome P450 2C19 is “inconclusive”. Consider `Fc1ccccc1CNC(=S)Nc1ccc(Cl)cc1`, for which the IC50 in [2] is 5.53 µM (active). In addition, in data set [3], the EC50 is > 53 µM (inactive).

Take `COc1ccccc1N(CC(=O)N1CCCCC1C)S(=O)(=O)c1ccc(Cl)cc1` (stereo not given): the EC50 in data set [3] is 5.95 µM (active). For the molecule `Cc1ccc(OCc2ccc(C(=O)Nc3c(C)nn(Cc4c(F)c(F)c(F)c(F)c4F)c3C)o2)c([N+](=O)[O-])c1`, the EC50 was 25.3 µM (active) in data set [1], 25.6 µM (inconclusive) on Streptokinase A and > 150 µM (not active) in the data set with Streptococcus.

Source of the values: ChEMBL document CHEMBL1201862, “PubChem BioAssay data set” (2004).
